The values that follow come from US12661415B2, “Isoindolinone compounds and imaging agents for imaging Huntingtin protein” (CHDI Foundation, Inc., priority 2021, dated 2026).

The target in data set [1] is T1, MBP-HTT(1-89)Q46-His(6×) (Exon1-Q46) protein aggregates (Homo sapiens, UniProt P42858, INS38QQQQQQQQQQQQQQQQQQQQQQQQQ).
T1 construct: MBP-HTT(1-89)Q46-His(6×); His(6×) (C); made in house
Briefly: Exon1-Q46 radioligand binding assay (RBA). As to conditions: aggregated Exon1-Q46 1 μM; 0.3 nM ligand [3H3-methyl]-5-((5-methoxypyridin-2-yl)methoxy)-2-(pyrazin-2-yl)benzo[d]oxazole; 60 minutes at 37° C.; read-out: Potency Range (IC50). The protocol: Exon1-Q46 Radioligand Binding Assay
For radioligand binding assays (RBA) MBP-HTT(1-89)Q46-His(6×) (“Exon1-Q46”) protein was generated based on a previous publication (Scherzinger et al. Cell, Vol. 90, 549-558, Aug. 8, 1997). For experiments 30 μM MBP-Exon1-Q46 was incubated with 150 μg/mL thrombin in assay buffer (150 mM NaCl, 50 mM Tris pH 8.0) and 2 mM CaCl2 for 16 hours at 37° C. Aggregated Exon1-Q46 was pelleted by centrifugation for 5 minutes at 13,000 rpm in a bench top centrifuge and re-dissolved in the same volume of assay buffer. Test compounds were prepared by titration in DMSO at 11 concentrations from 63 μM to 2 nM. For the RBA, Exon1-Q46 protein aggregates and test compounds were pre-incubated in assay buffer for 20 minutes at room temperature, in 100 μL/well in a 96-well plate (pp, round bottom). Then, ligand was added in 50 μL/well and incubated for 60 minutes at 37° C. Final assay concentrations were 1 μM to 30 pM test compound, 1 μM Exon1-Q46 protein (equivalent monomer concentration) and 0.3 nM ligand [^3H3-methyl]-5-((5-methoxypyridin-2-yl)methoxy)-2-(pyrazin-2-yl)benzo[d]oxazole. Samples were transferred onto GF/B filter plates and washed 2× with 200 μL PBS using a Filtermate Harvester. After drying filter plates for 1 hour at 55° C., the back of the plates were sealed with foil and 30 μL/well scintillation fluid (Packard MicroScint 40) added, incubated for 15 minutes in the dark and counted in a MicroBeta reader. For analysis, replicate data from independent assay plates were normalized towards 0% and 100% inhibition using control wells of vehicle (0% inhibition) and 1 μM unlabelled [^3H3-methyl]-5-((5-methoxypyridin-2-yl)methoxy)-2-(pyrazin-2-yl)benzo[d]oxazole (100% inhibition). IC50 values were determined with a sigmoidal inhibition model with four variables (top, bottom, slope, IC50) in a global fit using the normalized replicate data.
The results for various example compounds were as provided in the table below (+++<100 nM; ++100−500 nM; +>500 nM; ND: not determined): […]

Data set [2] is described as follows: Unbound brain fraction (fu,brain) in mouse brain by equilibrium dialysis. The data set is classed as in vitro ADME. As to conditions: 20% mouse brain homogenate, 5 μM, equilibrium dialysis 6 h at 37° C., average of triplicate. As for the experimental part:
Compounds were tested for unbounded brain fraction (or free fraction in brain, fu,brain). It is an accepted standard in the CNS PET imaging field that compounds with low unbound fraction in brain (<5%) likely have high non-specific binding background that is undesirable for the detection of target binding. As a result, fu,brain is an important property in the design of PET ligands for brain imaging [see Zhang et al., Design and selection parameters to accelerate the discovery of novel central nervous system positron emission tomography (PET) ligands and their application in the development of a novel phosphodiesterase 2A PET ligand. J Med Chem 2013, 56 (11), 4568-79; Liu et al., Imaging Mutant Huntingtin Aggregates: Development of a Potential PET Ligand. J Med Chem 2020, 63 (15), 8608-8633].
Determining fu,brain in Mouse Brain by Equilibrium Dialysis. Dialysis membranes (12-14 kDa) (HTDialysis, Connecticut) were soaked in phosphate buffer (10 mM potassium phosphate and 0.8% sodium chloride buffer, pH 7.4 at 37° C.) for a minimum of 1 h, at this time ethanol was added (final concentration of 20% v/v) and membranes continued to soak for 30 min Mouse brain tissue was diluted in phosphate buffer in a […] (w/v) and homogenised using a Precellys 24 (Stretton Scientific, UK) to achieve a final concentration of 20% brain homogenate.
Test compounds prepared as DMSO stocks at 0.5 mM are diluted into brain homogenate to achieve 5 μM final substrate concentration (1% DMSO) and a t=0 sample was prepared by sampling 50 μL of into 400 μL of quench solution (Acetonitrile containing 0.1% formic acid and sulfisoxazole/tolbutamide/imipramine/labetalol 200 nM). Samples were matrix matched with the addition of 50 μL of assay buffer. The HTDialysis Teflon blocks (HTDialysis, Connecticut) were assembled with pre-soaked membrane between each receiver and donor well and clamped in the stainless steel pressure plate (HTDialysis, Connecticut). The lower compartment (acceptor side) was dosed with 120 μL of buffer and the upper compartment (donor side) was dosed with 120 μL of compound in homogenate. All test compounds and controls were completed in triplicate. The HT dialysis plate was sealed and incubated for 6 h at 37° C. shaking at 250 rpm.
Following the incubation, 50 μL of sample was removed from all donor and acceptor wells and transferred into a quench plate containing 400 μL of quench solution. All samples were matrix matched with 50 μL of the alternate blank matrix. Analytical samples were diluted 1:1 with water using the Janus Robot and analysed by LC-MS/MS.
Peak areas of donor and acceptor compartments were compared to determine percent unbound (% fu) and the average of triplicate measurements was reported. Reference T0 sample was used to calculate sample recovery (%). Control compounds were compared with historic and literature values to ensure assay functionality.

pIC50: −log10 of the molar value.

T1 sequence (P42858 with tags, fused parts or gaps with the stated changes): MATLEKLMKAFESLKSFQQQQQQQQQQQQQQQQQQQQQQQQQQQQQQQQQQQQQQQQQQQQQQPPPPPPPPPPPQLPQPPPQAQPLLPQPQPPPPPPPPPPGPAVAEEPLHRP

With `COc1ccc(COc2ccc3c(c2F)CN(c2ccc(=O)n(C)n2)C3=O)nc1` [Compound 12-2, 4-Fluoro-5-[(5-methoxypyridin-2-yl)methoxy]-2-(1-methyl-6-oxo-1,6-dihydropyridazin-3-yl)-2,3-dihydro-1H-isoindol-1-one], in data set [1], the negative-log IC50 (pIC50) is > 7.00. Besides, the “Mean Free Brain Fraction (%)” value in data set [2] turned out to be 5.3%.

`Cn1nc(N2Cc3cc(OCc4ccc(OCF)cn4)ccc3C2=O)ccc1=O` [Compound 2-2, 5-{[5-(Fluoromethoxy)pyridin-2-yl]methoxy}-2-(1-methyl-6-oxo-1,6-dihydropyridazin-3-yl)-2,3-dihydro-1H-isoindol-1-one]: the negative-log IC50 (pIC50) in data set [1] was > 7.00. In addition, the “Mean Free Brain Fraction (%)” value in data set [2] is listed as 12.7%.

On to `COc1ccc(COc2cc(F)c3c(c2)CN(c2ccc(=O)n(C)n2)C3=O)nc1` [Compound 10-1, 7-Fluoro-5-[(5-methoxypyridin-2-yl)methoxy]-2-(1-methyl-6-oxo-1,6-di-hydropyridazin-3-yl)-2,3-dihydro-1H-isoindol-1-one], for which, in data set [1], the negative logarithm of the IC50 (pIC50) is > 7.00. The “Mean Free Brain Fraction (%)” value in data set [2] is listed as 14.3%.

`CC(F)Oc1ccc(COc2ccc3c(c2)CN(c2ccc(=O)n(C)n2)C3=O)nc1` (stereo not drawn) [Compound 1-10, 5-{[5-(1-Fluoroethoxy)pyridin-2-yl]methoxy}-2-(1-methyl-6-oxo-1,6-dihydropyridazin-3-yl)-2,3-dihydro-1H-isoindol-1-one]: the pIC50 in data set [1] is > 7.00. Moreover, the “Mean Free Brain Fraction (%)” value in data set [2] is 3.8%.

On to `COc1ccc(COc2ccc3c(c2)CN(c2ccc(=O)n(CF)n2)C3=O)nc1` [Compound 8-1, 2-(1-(Fluoromethyl)-6-oxo-1,6-dihydropyridazin-3-yl)-5-((5-methoxypyridin-2-yl)methoxy)isoindolin-1-one], for which the pIC50 in data set [1] is > 7.00. The “Mean Free Brain Fraction (%)” value in data set [2] is recorded as 7.4%.

On to `COc1ccc2c(c1)CN(c1ccc(OCc3cccnc3)nc1)C2=O` [Compound 11-1, 5-Methoxy-2-{6-[(pyridin-3-yl)methoxy]pyridin-3-yl}-2,3-dihydro-1H-isoindol-1-one], for which the negative logarithm of the IC50 (pIC50) in data set [1] was > 7.00. The “Mean Free Brain Fraction (%)” value in data set [2] turned out to be 3.2%.

Consider `COc1ccc(COc2cc3c(cc2F)C(=O)N(c2cn(C)c(=O)cn2)C3)nc1` [Compound 14-3, 6-Fluoro-5-((5-methoxypyridin-2-yl)methoxy)-2-(4-methyl-5-oxo-4,5-dihydropyrazin-2-yl)isoindolin-1-one], for which the negative-log IC50 (pIC50) in data set [1] was > 7.00. In addition, the “Mean Free Brain Fraction (%)” value in data set [2] was determined as 17.1%.

`Cn1nc(N2Cc3cc(OCc4ccc(I)cn4)ccc3C2=O)ccc1=O` [Compound 1-3, 5-[(5-Iodopyridin-2-yl)methoxy]-2-(1-methyl-6-oxo-1,6-dihydropyridazin-3-yl)-2,3-dihydro-1H-isoindol-1-one]: the pIC50 in data set [1] is > 7.00. Moreover, in data set [2], the “Mean Free Brain Fraction (%)” value stood at 1.2%.

On to `COc1ccc(COc2cc(F)c3c(c2)CN(c2ccc(=O)[nH]n2)C3=O)nc1` [Compound 10-2, 7-Fluoro-5-[(5-methoxypyridin-2-yl)methoxy]-2-(6-oxo-1,6-dihydropyridazin-3-yl)-2,3-dihydro-1H-isoindol-1-one], for which the negative-log IC50 (pIC50) in data set [1] was > 7.00. In addition, in data set [2], the “Mean Free Brain Fraction (%)” value was found to be 9.5%.

In the case of `COc1cc(COc2ccc3c(c2)CN(c2ccc(=O)n(C)n2)C3=O)ncc1F` [Compound 3-1, 5-[(5-Fluoro-4-methoxypyridin-2-yl)methoxy]-2-(1-methyl-6-oxo-1,6-di-hydropyridazin-3-yl)-2,3-dihydro-1H-isoindol-1-one], the pIC50 in data set [1] was > 7.00. In data set [2], the “Mean Free Brain Fraction (%)” value turned out to be 9.7%.

On to `COc1ccc(COc2ccc3c(c2F)C(=O)N(c2ccc(=O)n(C)n2)C3)nc1` [Compound 12-10, 7-Fluoro-6-[(5-methoxypyridin-2-yl)methoxy]-2-(1-methyl-6-oxo-1,6-dihydropyridazin-3-yl)-2,3-dihydro-1H-isoindol-1-one], for which the pIC50 in data set [1] was > 7.00. Further, in data set [2], the “Mean Free Brain Fraction (%)” value is 16.4%.

With `COc1cc(COc2ccc3c(c2)CN(c2ccc(=O)[nH]n2)C3=O)ncc1F` [Compound 9-3, 5-((5-Fluoro-4-methoxypyridin-2-yl)methoxy)-2-(6-oxo-1,6-dihydropyridazin-3-yl)isoindolin-1-one], the pIC50 in data set [1] was > 7.00. Besides, the “Mean Free Brain Fraction (%)” value in data set [2] is reported as 5.2%.

Turning to `Cn1nc(N2Cc3cc(OCc4ccc(OCCF)cn4)cnc3C2=O)ccc1=O` [Compound 12-6, 6-(3-{[5-(2-Fluoroethoxy)pyridin-2-yl]methoxy}-7-oxo-5H,6H,7H-pyrrolo[3,4-b]pyridin-6-yl)-2-methyl-2,3-dihydropyridazin-3-one], the pIC50 in data set [1] was > 7.00. In addition, in data set [2], the “Mean Free Brain Fraction (%)” value was determined as 50.0%.

For `COc1cnc(COc2cnc3c(c2)CN(c2ccc(=O)n(C)n2)C3=O)c(F)c1` [Compound 12-8, 6-{3-[(3-Fluoro-5-methoxypyridin-2-yl)methoxy]-7-oxo-5H,6H,7H-pyrrolo[3,4-b]pyridin-6-yl}-2-methyl-2,3-dihydropyridazin-3-one], the pIC50 in data set [1] was > 7.00. In data set [2], the “Mean Free Brain Fraction (%)” value was determined as 65.0%.

With `COc1cnc(COc2ccc3c(c2)CN(c2ccc(=O)n(C)n2)C3=O)cc1Cl` [Compound 1-11, 5-[(4-Chloro-5-methoxypyridin-2-yl)methoxy]-2-(1-methyl-6-oxo-1,6-dihydropyridazin-3-yl)-2,3-dihydro-1H-isoindol-1-one], the pIC50 in data set [1] was > 7.00. In addition, the “Mean Free Brain Fraction (%)” value in data set [2] came to 1.6%.

Regarding `COc1ccc(COc2ccc3c(c2)C(=O)N(c2ccc(=O)n(C)n2)C3)nc1` [Compound 1-12, 6-[(5-Methoxypyridin-2-yl)methoxy]-2-(1-methyl-6-oxo-1,6-dihydropyridazin-3-yl)-2,3-dihydro-1H-isoindol-1-one], the pIC50 in data set [1] was > 7.00. Besides, in data set [2], the “Mean Free Brain Fraction (%)” value came to 9.0%.

With `Cn1nc(N2Cc3cc(OCc4cc(Cl)c(F)cn4)ccc3C2=O)ccc1=O` [Compound 2-3, 5-[(4-Chloro-5-fluoropyridin-2-yl)methoxy]-2-(1-methyl-6-oxo-1,6-dihydropyridazin-3-yl)-2,3-dihydro-1H-isoindol-1-one], the negative logarithm of the IC50 (pIC50) in data set [1] is > 7.00. For the same compound, the “Mean Free Brain Fraction (%)” value in data set [2] amounted to 2.7%.

In the case of `COc1ccc(COc2cc3c(cc2F)CN(c2ccc(=O)n(C)n2)C3=O)nc1` [Compound 12-4, 5-Fluoro-6-[(5-methoxypyridin-2-yl)methoxy]-2-(1-methyl-6-oxo-1,6-dihydropyridazin-3-yl)-2,3-dihydro-1H-isoindol-1-one], the negative-log IC50 (pIC50) in data set [1] is > 7.00. The “Mean Free Brain Fraction (%)” value in data set [2] is 9.8%.
